Values joined by “and” are separate entries in the source; they are usually repeats but may differ in a detail not shown here. Equal values may be shown once.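 Results reflect a 48-hour exposure of cells in 96-well plates to compound at five concentrations. GI50 = concentration required for 50% inhibition of growth. TGI is the concentration that stops growth completely.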

Test systems include CAKI-1 renal; CCRF-CEM leukemia; HCT-15 colon; HOP-92 NSCLC; NCI-H460 lung; OVCAR-5 ovarian; SF-295 CNS; SK-MEL-5 melanoma; U251 CNS; K-562 leukemia.
Common to all, as to assay: NCI anticancer screen, dose series, 48 h

`NC(=O)c1ccc(I)c(N=O)c1`: the GI50 is 20 µM with CAKI-1 renal; 40.5 µM in the assay with CCRF-CEM leukemia; 30 µM with HCT-15 colon; 67.1 µM in the assay on HOP-92 NSCLC; 62.6 µM in the assay on NCI-H460 lung; 71.9 µM with OVCAR-5 ovarian. Moreover, the GI50 with SF-295 CNS is more than 100 µM; in the assay with SK-MEL-5 melanoma it was 34.2 µM; in the assay on U251 CNS, 18.6 µM. Moreover, the TGI is 45.4 µM with CAKI-1 renal; more than 100 µM in the assay with CCRF-CEM leukemia; more than 100 µM with HCT-15 colon; more than 100 µM in the assay with HOP-92 NSCLC; more than 100 µM with NCI-H460 lung; more than 100 µM in the assay on OVCAR-5 ovarian. Further, the values for the TGI with SF-295 CNS, in the assay with SK-MEL-5 melanoma and with U251 CNS were more than 100 µM, more than 100 µM and 36.8 µM, respectively.

Regarding `COc1c(O)cc2oc(-c3ccc(O)cc3)cc(=O)c2c1O`, the TGI in the assay with CCRF-CEM leukemia was 65.1 µM; in the assay with HCT-15 colon, more than 100 µM; with HOP-92 NSCLC, 36.8 µM; with K-562 leukemia it was more than 100 µM; in the assay on NCI-H460 lung, more than 100 µM; in the assay with OVCAR-5 ovarian it was more than 100 µM. In addition, the values for the TGI with SF-295 CNS, in the assay with SK-MEL-5 melanoma and with U251 CNS were more than 100 µM, 63.7 µM and more than 100 µM, respectively.

For `O=C(O)c1cc2ccc3ccccc3c2oc1=O`, the TGI in the assay with CCRF-CEM leukemia, in the assay with HCT-15 colon, in the assay on HOP-92 NSCLC, in the assay with K-562 leukemia, in the assay with NCI-H460 lung and in the assay on OVCAR-5 ovarian was more than 100 µM throughout. Besides, the TGI with SF-295 CNS, in the assay with SK-MEL-5 melanoma and in the assay on U251 CNS was more than 100 µM in each case.

Regarding `COc1ccc2c(c1)nnn1c3ncccc3c(N=O)c21`, the GI50 was 0.0892 µM and 0.202 µM in the assay on CAKI-1 renal; 0.0409 µM with CCRF-CEM leukemia; 3.13 µM and 2.31 µM with HCT-15 colon; 0.0424 µM and 0.117 µM in the assay on HOP-92 NSCLC; 1.67 µM and 2.19 µM in the assay on NCI-H460 lung; 8.02 µM and 4.57 µM in the assay with OVCAR-5 ovarian. Also, the GI50 with SF-295 CNS was 4.69 µM and 6.95 µM; in the assay with SK-MEL-5 melanoma, 5.01 µM and 11.7 µM; with U251 CNS it was 0.72 µM and 1.18 µM. Besides, the TGI was 0.359 µM and 1.59 µM in the assay on CAKI-1 renal; more than 100 µM with CCRF-CEM leukemia; 50 µM and 11.8 µM with HCT-15 colon; 8.12 µM and 7.8 µM with NCI-H460 lung; 23.2 µM and > 100 µM in the assay with OVCAR-5 ovarian; 15.3 µM and 32 µM with SF-295 CNS. Further, the TGI with SK-MEL-5 melanoma is 11.1 µM and 24.1 µM; in the assay with U251 CNS it was 31.3 µM and 12.9 µM.

In the case of `CCCCC[C@H]1C/C=C2/C(=O)C=C[C@@H]2C/C=C\CCCC(=O)O[C@@H](CCCCC)C/C=C2/C(=O)C=C[C@@H]2C/C=C\CCCC(=O)O1`, the GI50 in the assay on CCRF-CEM leukemia is 0.082 µM; in the assay on HCT-15 colon it was 0.428 µM; in the assay on HOP-92 NSCLC it was 0.593 µM; with K-562 leukemia, 0.0891 µM; in the assay on NCI-H460 lung, 0.606 µM; with OVCAR-5 ovarian it was 0.566 µM. For the same compound, the GI50 is 0.506 µM in the assay on SF-295 CNS, 0.414 µM in the assay on SK-MEL-5 melanoma and 0.151 µM in the assay with U251 CNS. Also, the TGI with CCRF-CEM leukemia worked out at 1.42 µM; with HCT-15 colon, 1.01 µM; in the assay on HOP-92 NSCLC, 1.2 µM; in the assay on K-562 leukemia, 0.561 µM; with NCI-H460 lung, 1.48 µM; in the assay on OVCAR-5 ovarian it was 1.31 µM. Further, the TGI came to 1.29 µM in the assay on SF-295 CNS, 0.791 µM with SK-MEL-5 melanoma and 0.473 µM in the assay on U251 CNS.

Consider `CCOC1=C2C(=O)OC(=O)C2C2CCCCC2=C1` (centres undefined), for which the TGI in the assay on CAKI-1 renal, in the assay with CCRF-CEM leukemia, with HCT-15 colon, with HOP-92 NSCLC, in the assay on K-562 leukemia and in the assay on NCI-H460 lung was more than 100 µM throughout. For the same compound, the TGI in the assay on SF-295 CNS, in the assay on SK-MEL-5 melanoma and in the assay with U251 CNS was more than 100 µM each time.

With `Cc1cc(Cl)ccc1Nc1nc(C(F)(F)F)ccc1C(=O)N/N=C/c1ccc(Cl)cc1`, the GI50 in the assay with CAKI-1 renal was 1.25 µM; in the assay on CCRF-CEM leukemia, 0.384 µM; in the assay on HCT-15 colon it was 0.895 µM; with HOP-92 NSCLC, 1.94 µM; with K-562 leukemia it was 1.83 µM; in the assay with NCI-H460 lung, 2.37 µM. Moreover, the GI50 is 2.07 µM in the assay on OVCAR-5 ovarian, 1.52 µM with SK-MEL-5 melanoma and 2.07 µM with U251 CNS. Besides, the TGI in the assay with CAKI-1 renal turned out to be 3.85 µM; with CCRF-CEM leukemia it was 3.39 µM; with HCT-15 colon, 13.1 µM; in the assay with HOP-92 NSCLC, 6.85 µM; with K-562 leukemia, 8.22 µM; in the assay on NCI-H460 lung, 9.08 µM. Also, the TGI with OVCAR-5 ovarian worked out at 6.64 µM; with SK-MEL-5 melanoma, 3.02 µM.

In the case of `COc1cccc2c1C(=O)c1c(O)c3c(c(O)c1C2=O)CC(O)(C(O)CO)CC3OC1CC(N2CCOCC2)C(O)C(C)O1` (centres undefined), the TGI in the assay with CAKI-1 renal is 0.0335 µM; with CCRF-CEM leukemia, 0.221 µM; in the assay with HCT-15 colon, 0.515 µM and 1.36 µM; with HOP-92 NSCLC, 0.0652 µM; with K-562 leukemia, 1.61 µM; with OVCAR-5 ovarian, 0.0926 µM and 0.0935 µM. Moreover, the TGI was 0.0718 µM and 0.106 µM in the assay with SF-295 CNS; 0.00553 µM and 0.0332 µM with SK-MEL-5 melanoma; 1.26 µM and 1.05 µM in the assay on U251 CNS. Further, the GI50 in the assay on HCT-15 colon is 0.0536 µM; with HOP-92 NSCLC, 0.0188 µM; in the assay on OVCAR-5 ovarian, 0.0331 µM; in the assay with SF-295 CNS, 0.0243 µM; with SK-MEL-5 melanoma, 0.017 µM; with U251 CNS, 0.0155 µM.

For the compound `C1COCCN1.C1COCCN1.NC1CCCCC1N.[Cl-].[Pt+2]` (centres undefined), the GI50 with CAKI-1 renal, with CCRF-CEM leukemia, in the assay on HOP-92 NSCLC, in the assay with K-562 leukemia, with NCI-H460 lung and with OVCAR-5 ovarian was more than 100 µM throughout. For the same compound, the GI50 in the assay with SF-295 CNS, in the assay on SK-MEL-5 melanoma and in the assay with U251 CNS was more than 100 µM in each case. Besides, the TGI in the assay on CAKI-1 renal, with CCRF-CEM leukemia, in the assay on HOP-92 NSCLC, in the assay on K-562 leukemia, in the assay with NCI-H460 lung and with OVCAR-5 ovarian was more than 100 µM each time. Besides, the TGI in the assay with SF-295 CNS, in the assay with SK-MEL-5 melanoma and with U251 CNS was more than 100 µM throughout.

As for `Cc1cc2c(C)nn(Cc3ccccc3)c2c(C(N)=O)c1C`, the TGI in the assay on CCRF-CEM leukemia, in the assay on HCT-15 colon, in the assay with HOP-92 NSCLC, in the assay with K-562 leukemia, in the assay on NCI-H460 lung and in the assay with OVCAR-5 ovarian was more than 100 µM in each case. Also, the TGI with SF-295 CNS, with SK-MEL-5 melanoma and in the assay with U251 CNS was more than 100 µM in each case.

Values taken from PubChem BioAssay (NCI).
